# Article PMC9127750, “Structure-based design of CDC42 effector interaction inhibitors for the treatment of cancer” (Cell reports, 2022)
# Several values for one entry are separate records, joined by “and”; a condition that tells them apart may be missing. Identical values can stand only once.
# Test system: WM3248 melanoma cells, 486 antibodies
# Test: Reverse phase protein arrays (RPPA)
# Assay type: cell-based, Human
# Source text: Pellets were snap frozen in liquid nitrogen and shipped to MD Anderson Cancer Center core RPPA facility for RPPA analysis (Table S5). Three biological replicates for each sample were generated.
# Nomenclatures on the RPPA heatmaps: name_of_antibody.species_of_antibody.status_of_antibody. V - antibody validated; C - validation of antibody in progress; Q - antibody nonspecific; E – under evaluation; antibodies raised in M - mouse, G - goat, R - rabbit, or T - rat.
# [1] = level 5 normalized to 0, mean of 3
# [2] = level 5 normalized to 0, single replicates
compound,measurement,setting,value
"CN(C)c1cccc(Nc2cc(-c3ccccc3)nc(C3CCNCC3)n2)c1 [ARN22089, N1,N1-dimethyl-N3-(6-phenyl-2-(piperidin-4-yl)pyrimidin-4-yl)benzene-1,3-diamine]",S6 phosphorylation at serine 235/236 and 240/244 (RPPA),"WM3248, 6 h, 10 and 20 μM",inhibit S6 phosphorylation
same,number of proteins with significantly influenced phosphorylation (RPPA),"WM3248, 6 h, 10 and/or 20 μM",10
same,number of proteins with significantly influenced abundance (RPPA),"WM3248, 6 h, 10 and/or 20 μM, 486 antibodies",38
same,TSC1.R.C Norm_5 Average,[1],1.102
same,TTF1.R.V Norm_5 Average,[1],1.049
same,TUFM.R.V Norm_5 Average,[1],0.868
same,Tuberin_pT1462.R.V Norm_5 Average,[1],0.977
same,Twist.M.C Norm_5 Average,[1],0.950
same,Tyro3.R.V Norm_5 Average,[1],1.005
same,U.Histone.H2B.R.C Norm_5 Average,[1],1.142
same,UBAC1.R.V Norm_5 Average,[1],0.993
same,UBQLN4.M.C Norm_5 Average,[1],1.016
same,ULK1_pS757.R.C Norm_5 Average,[1],1.079
same,UQCRC2.M.C Norm_5 Average,[1],0.979
same,UVRAG.R.C Norm_5 Average,[1],1.020
same,VASP.R.V Norm_5 Average,[1],0.994
same,VAV1.R.C Norm_5 Average,[1],1.019
same,VEGFR.2.R.V Norm_5 Average,[1],1.081
same,VEGFR.2_pY1175.R.C Norm_5 Average,[1],0.910
same,VHL.R.C Norm_5 Average,[1],0.932
same,Vinculin.M.V Norm_5 Average,[1],1.019
same,WIPI1.R.C Norm_5 Average,[1],1.058
same,WIPI2.R.C Norm_5 Average,[1],1.061
same,WTAP.R.V Norm_5 Average,[1],0.959
same,Wee1.R.C Norm_5 Average,[1],1.054
same,Wee1_pS642.R.C Norm_5 Average,[1],0.993
same,XBP.1.G.C Norm_5 Average,[1],0.977
same,XIAP.R.C Norm_5 Average,[1],1.035
same,XPA.M.V Norm_5 Average,[1],0.929
same,XPF.R.C Norm_5 Average,[1],0.943
same,XRCC1.R.C Norm_5 Average,[1],0.946
same,YAP.R.C Norm_5 Average,[1],0.953
same,YAP_pS127.R.V Norm_5 Average,[1],0.906
same,YB1_pS102.R.V Norm_5 Average,[1],0.961
same,YES1.R.V Norm_5 Average,[1],0.962
same,YTHDF2.R.V Norm_5 Average,[1],1.076
same,YTHDF3.R.C Norm_5 Average,[1],0.987
same,ZAP.70.R.V Norm_5 Average,[1],0.952
same,ZEB1.R.V Norm_5 Average,[1],0.892
same,TSC1.R.C Norm_5_1 to Norm_5_3,[2],1.060 and 1.024 and 1.221
same,TTF1.R.V Norm_5_1 to Norm_5_3,[2],1.035 and 1.145 and 0.966
same,TUFM.R.V Norm_5_1 to Norm_5_3,[2],0.845 and 0.669
same,Tuberin.R.V Norm_5_1 to Norm_5_3,[2],1.052 and 1.301
same,Tuberin_pT1462.R.V Norm_5_1 to Norm_5_3,[2],0.994 and 0.956 and 0.983
same,Twist.M.C Norm_5_1 to Norm_5_3,[2],0.898 and 0.964 and 0.990
same,Tyro3.R.V Norm_5_1 to Norm_5_3,[2],1.008 and 1.152 and 0.855
same,U.Histone.H2B.R.C Norm_5_1 to Norm_5_3,[2],1.497 and 1.118 and 0.811
same,UBAC1.R.V Norm_5_1 to Norm_5_3,[2],0.966 and 1.139 and 0.875
same,UBQLN4.M.C Norm_5_1 to Norm_5_3,[2],0.962 and 1.147
same,UGT1A.M.V Norm_5_1 to Norm_5_3,[2],0.962 and 0.965 and 0.979
same,ULK1_pS757.R.C Norm_5_1 to Norm_5_3,[2],0.993 and 1.063
same,UQCRC2.M.C Norm_5_1 to Norm_5_3,[2],0.997 and 1.139 and 0.800
same,UVRAG.R.C Norm_5_1 to Norm_5_3,[2],1.096 and 0.960 and 1.005
same,VASP.R.V Norm_5_1 to Norm_5_3,[2],1.053 and 0.992
same,VAV1.R.C Norm_5_1 to Norm_5_3,[2],1.027 and 0.961
same,VEGFR.2.R.V Norm_5_1 to Norm_5_3,[2],0.985 and 1.166
same,VEGFR.2_pY1175.R.C Norm_5_1 to Norm_5_3,[2],0.849 and 0.870 and 1.011
same,VHL.EPPK1.M.C Norm_5_1 to Norm_5_3,[2],0.542 and 1.028 and 0.909
same,VHL.R.C Norm_5_1 to Norm_5_3,[2],0.928 and 0.903 and 0.966
same,Vinculin.M.V Norm_5_1 to Norm_5_3,[2],0.942 and 1.027
same,WIPI1.R.C Norm_5_1 to Norm_5_3,[2],1.134 and 1.302 and 0.738
same,WIPI2.R.C Norm_5_1 to Norm_5_3,[2],1.104 and 0.916 and 1.163
same,WTAP.R.V Norm_5_1 to Norm_5_3,[2],0.932 and 0.904
same,Wee1.R.C Norm_5_1 to Norm_5_3,[2],0.867 and 1.101 and 1.195
same,Wee1_pS642.R.C Norm_5_1 to Norm_5_3,[2],0.917 and 0.940 and 1.121
same,XBP.1.G.C Norm_5_1 to Norm_5_3,[2],0.957 and 1.060 and 0.914
same,XIAP.R.C Norm_5_1 to Norm_5_3,[2],1.060 and 0.982 and 1.062
same,XPA.M.V Norm_5_1 to Norm_5_3,[2],0.895 and 0.876 and 1.017
same,XPF.R.C Norm_5_1 to Norm_5_3,[2],0.932 and 0.922 and 0.975
same,XRCC1.R.C Norm_5_1 to Norm_5_3,[2],0.894 and 1.030 and 0.916
same,YAP.R.C Norm_5_1 to Norm_5_3,[2],0.937 and 0.945 and 0.977
same,YAP_pS127.R.V Norm_5_1 to Norm_5_3,[2],0.985 and 0.903 and 0.830
same,YB1_pS102.R.V Norm_5_1 to Norm_5_3,[2],0.906
same,YES1.R.V Norm_5_1 to Norm_5_3,[2],0.963 and 1.014 and 0.910
same,YTHDF2.R.V Norm_5_1 to Norm_5_3,[2],1.138 and 1.217 and 0.872
same,YTHDF3.R.C Norm_5_1 to Norm_5_3,[2],1.049 and 0.875
same,ZAP.70.R.V Norm_5_1 to Norm_5_3,[2],0.889 and 1.054
same,ZEB1.R.V Norm_5_1 to Norm_5_3,[2],0.816 and 0.893 and 0.967
same,HLA.DQA1.R.V Norm_5 Average,level 5 vs 0,0.908
same,HLA.DR.DP.DQ.DX.R.C Norm_5 Average,level 5 vs 0,0.994
same,HSP27.M.C Norm_5 Average,level 5 vs 0,0.932
same,HSP27_pS82.R.V Norm_5 Average,level 5 vs 0,1.025
same,HSP60.R.V Norm_5 Average,level 5 vs 0,1.006
same,HSP70.R.C Norm_5 Average,level 5 vs 0,1.035
same,Hexokinase.I.R.C Norm_5 Average,level 5 vs 0,1.032
same,Hexokinase.II.R.V Norm_5 Average,level 5 vs 0,1.130
same,Hif.1αR.C Norm_5 Average,level 5 vs 0,1.202
same,Histone.H3.R.V Norm_5 Average,level 5 vs 0,1.065
same,Histone.H3_pS10.R.V Norm_5 Average,level 5 vs 0,0.786
same,IDO.R.C Norm_5 Average,level 5 vs 0,1.015
same,IGF1R_pY1135_Y1136.R.V Norm_5 Average,level 5 vs 0,1.003
same,IGFBP2.R.V Norm_5 Average,level 5 vs 0,1.029
same,IGFBP3.M.V Norm_5 Average,level 5 vs 0,0.953
same,IGFRb.R.C Norm_5 Average,level 5 vs 0,1.085
same,IL.6.R.C Norm_5 Average,level 5 vs 0,1.015
same,INPP4b.R.C Norm_5 Average,level 5 vs 0,1.023
same,IR.b.R.C Norm_5 Average,level 5 vs 0,1.051
same,IRF.1.R.V Norm_5 Average,level 5 vs 0,0.995
same,IRF.3.R.V Norm_5 Average,level 5 vs 0,0.937
same,IRS1.R.V Norm_5 Average,level 5 vs 0,1.023
same,IRS2.R.C Norm_5 Average,level 5 vs 0,0.992
same,JNK2.R.V Norm_5 Average,level 5 vs 0,1.065
same,JNK_pT183_Y185.R.C Norm_5 Average,level 5 vs 0,0.992
same,Jagged1.R.V Norm_5 Average,level 5 vs 0,0.984
same,Jak2.R.V Norm_5 Average,level 5 vs 0,1.003
same,KEAP1.R.V Norm_5 Average,level 5 vs 0,0.955
same,LAD1.R.V Norm_5 Average,level 5 vs 0,0.963
same,LC3A.B.R.C Norm_5 Average,level 5 vs 0,1.012
same,LCN2.R.V Norm_5 Average,level 5 vs 0,1.298
same,LDHA.R.C Norm_5 Average,level 5 vs 0,1.102
same,LRP6_pS1490.R.V Norm_5 Average,level 5 vs 0,1.046
same,Lasu1.R.V Norm_5 Average,level 5 vs 0,0.972
same,Lck.R.V Norm_5 Average,level 5 vs 0,1.010
same,Lyn.R.V Norm_5 Average,level 5 vs 0,0.844
same,MAPK_pT202_Y204.R.C Norm_5 Average,level 5 vs 0,0.869
same,MCT4.R.V Norm_5 Average,level 5 vs 0,1.048
same,MDM2_pS166.R.V Norm_5 Average,level 5 vs 0,1.023
same,MEK1.R.V Norm_5 Average,level 5 vs 0,1.023
same,MEK1_pS217_S221.R.V Norm_5 Average,level 5 vs 0,0.982
same,MERIT40.R.C Norm_5 Average,level 5 vs 0,0.989
same,METTL3.R.V Norm_5 Average,level 5 vs 0,0.986
same,MIF.R.C Norm_5 Average,level 5 vs 0,0.948
same,MIG6.R.V Norm_5 Average,level 5 vs 0,0.939
same,MITF.R.V Norm_5 Average,level 5 vs 0,1.020
same,MLH1.M.V Norm_5 Average,level 5 vs 0,0.926
same,MLKL.R.V Norm_5 Average,level 5 vs 0,0.945
same,MMP2.R.V Norm_5 Average,level 5 vs 0,0.946
same,MR1.M.C Norm_5 Average,level 5 vs 0,0.994
same,MRAP.R.C Norm_5 Average,level 5 vs 0,1.051
same,MSH2.R.C Norm_5 Average,level 5 vs 0,0.954
same,MSH6.R.C Norm_5 Average,level 5 vs 0,1.056
same,MSI2.R.C Norm_5 Average,level 5 vs 0,1.081
same,MTCO1.M.V Norm_5 Average,level 5 vs 0,1.081
same,MTSS1.M.C Norm_5 Average,level 5 vs 0,0.950
same,Mcl.1.R.V Norm_5 Average,level 5 vs 0,0.960
same,MelanA.R.C Norm_5 Average,level 5 vs 0,1.007
same,Melanoma.gp100.R.C Norm_5 Average,level 5 vs 0,1.060
same,Merlin.R.C Norm_5 Average,level 5 vs 0,1.018
same,Midkine.R.V Norm_5 Average,level 5 vs 0,0.932
same,Mitofusin.1.R.V Norm_5 Average,level 5 vs 0,1.025
same,Mnk1.R.V Norm_5 Average,level 5 vs 0,1.012
same,mTOR.R.V Norm_5 Average,level 5 vs 0,1.033
same,mTOR_pS2448.R.C Norm_5 Average,level 5 vs 0,1.080
same,HLA.DQA1.R.V Norm_5,"level 5 vs 0, replicates",0.839 and 1.026 and 0.858
same,HLA.DR.DP.DQ.DX.R.C Norm_5,"level 5 vs 0, replicates",0.915 and 1.122 and 0.946
same,HMHA1.R.V Norm_5,"level 5 vs 0, replicates",1.034 and 1.050 and 1.124
same,HNRNPK.R.V Norm_5,"level 5 vs 0, replicates",0.924 and 0.922 and 0.995
same,HSP27.M.C Norm_5,"level 5 vs 0, replicates",0.955 and 1.006 and 0.835
same,HSP27_pS82.R.V Norm_5,"level 5 vs 0, replicates",0.966 and 0.991 and 1.118
same,HSP60.R.V Norm_5,"level 5 vs 0, replicates",1.007 and 0.973
same,HSP70.R.C Norm_5,"level 5 vs 0, replicates",1.007 and 1.047 and 1.051
same,Hexokinase.I.R.C Norm_5,"level 5 vs 0, replicates",1.009 and 1.149
same,Hexokinase.II.R.V Norm_5,"level 5 vs 0, replicates",1.156 and 1.123 and 1.110
same,Hif.1αR.C Norm_5,"level 5 vs 0, replicates",1.356 and 1.081 and 1.170
same,Histone.H3.R.V Norm_5,"level 5 vs 0, replicates",1.165 and 1.542 and 0.488
same,Histone.H3_pS10.R.V Norm_5,"level 5 vs 0, replicates",0.733 and 1.032 and 0.592
same,IDO.R.C Norm_5,"level 5 vs 0, replicates",1.121 and 0.959 and 0.966
same,IGF1R_pY1135_Y1136.R.V Norm_5,"level 5 vs 0, replicates",0.933 and 1.035
same,IGFBP2.R.V Norm_5,"level 5 vs 0, replicates",0.940 and 1.033 and 1.113
same,IGFBP3.M.V Norm_5,"level 5 vs 0, replicates",0.833 and 0.934
same,IGFRb.R.C Norm_5,"level 5 vs 0, replicates",1.063 and 1.065 and 1.126
same,IL.6.R.C Norm_5,"level 5 vs 0, replicates",1.051 and 0.961 and 1.033
same,IMP3.R.C Norm_5,"level 5 vs 0, replicates",0.861 and 0.973 and 1.018
